Assay results: PubChem BioAssay AID248 (DTP/NCI, 2004)
Values joined by “and” are separate entries in the source; they are usually repeats but may differ in a detail not shown here. Equal values may be shown once. Toxic doses and inconclusive results are not listed. Bridge positions count the residues as written; N and C are the ends. Peptide text beside a SMILES is read from it. I, II: the chains in the order shown.

System: L1210 leukemia ip in BDF1 mice, survival T/C
Experiment: NCI In Vivo Anticancer Drug Screen. Data for tumor model L1210 Leukemia (intraperitoneal) in B6D2F1 (BDF1) mice
Settings: endpoint: mean survival time, higher = longer survival
Outline: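 Survival endpoint. Drug-treated group vs vehicle group, expressed as T divided by C. Tumor passaged by transplantation.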

[1] = dose: 100.0 mg/kg/injection, schedule: Q04DX002 (ip), vehicle: saline with Tween-80
[2] = dose: 200.0 mg/kg/injection, schedule: Q04DX002 (ip), vehicle: saline with Tween-80
[3] = dose: 400.0 mg/kg/injection, schedule: Q04DX002 (ip), vehicle: saline with Tween-80
[4] = dose: 100.0 mg/kg/injection, schedule: Q01DX001 (ip), vehicle: saline
[5] = dose: 200.0 mg/kg/injection, schedule: Q01DX001 (ip), vehicle: saline

## CNC(=O)O[C@H]1CC[C@@]2(C)C(=CC[C@H]3[C@@H]4CC[C@H]([C@H](C)CCCC(C)C)[C@@]4(C)CC[C@@H]32)C1
dose: 100.0 mg/kg/injection, schedule: Q01DX001 (sc), vehicle: steriod suspending solution
  T/C: 87 % of control
dose: 200.0 mg/kg/injection, schedule: Q01DX001 (sc), vehicle: steriod suspending solution
  T/C: 97 % of control
dose: 400.0 mg/kg/injection, schedule: Q01DX001 (sc), vehicle: steriod suspending solution
  T/C: 92 % of control

## Oc1ccccc1/C=N\Sc1ccc(Br)cc1
[1]
  T/C: 112 % of control
[2]
  T/C: 91 % of control
[3]
  T/C: 94 % of control

## NOCc1c(F)c(F)c(F)c(F)c1F
dose: 100.0 mg/kg/injection, schedule: Q04DX003 (ip), vehicle: saline sonified
  T/C: 93 % of control
dose: 200.0 mg/kg/injection, schedule: Q04DX003 (ip), vehicle: saline sonified
  T/C: 104 % of control

## CCOC(=O)C(Cc1ccc(O)cc1)NC(=O)C(N)CSSCC(N)C(=O)NC(Cc1ccc(O)cc1)C(=O)OCC (stereo not drawn) (I: H-Cys-Tyr-OEt / II: H-Cys-Tyr-OEt; disulfide I:1-II:1; configuration not given here)
[4]
  T/C: 97 % of control
[5]
  T/C: 105 % of control
dose: 400.0 mg/kg/injection, schedule: Q01DX001 (ip), vehicle: saline
  T/C: 94 % of control

## CC(=O)Nc1ccc(S(=O)(=O)SC(F)(F)F)cc1
dose: 5.0 mg/kg/injection, schedule: Q01DX001 (ip), vehicle: saline
  T/C: 97 % of control
dose: 10.0 mg/kg/injection, schedule: Q01DX001 (ip), vehicle: saline
  T/C: 98 % of control
dose: 20.0 mg/kg/injection, schedule: Q01DX001 (ip), vehicle: saline
  T/C: 101 % of control

## COC(=O)C1=C(C(=O)OC)C2C=CC1C1(C)N=C(OC)C21C (stereo not given)
[1]
  T/C: 100 % of control
[2]
  T/C: 100 % of control
[3]
  T/C: 102 % of control

## Clc1ncnc2c1nnn2C1CCCC1
[4]
  T/C: 101 % of control
[5]
  T/C: 104 % of control

## O=C1OCCS1
dose: 25.0 mg/kg/injection, schedule: Q01DX009 (ip), vehicle: saline
  T/C: 107 % of control
dose: 50.0 mg/kg/injection, schedule: Q01DX009 (ip), vehicle: saline
  T/C: 104 % of control
dose: 100.0 mg/kg/injection, schedule: Q01DX009 (ip), vehicle: saline
  T/C: 101 % of control and 105 % of control

## O=S(=O)(O)OC1CCCC1S(=O)(=O)O (stereo not given)
dose: 50.0 mg/kg/injection, schedule: Q01DX001 (ip), vehicle: carboxymethylcellulose (CMC)
  T/C: 96 % of control
dose: 100.0 mg/kg/injection, schedule: Q01DX001 (ip), vehicle: carboxymethylcellulose (CMC)
  T/C: 107 % of control
dose: 200.0 mg/kg/injection, schedule: Q01DX001 (ip), vehicle: carboxymethylcellulose (CMC)
  T/C: 107 % of control
dose: 400.0 mg/kg/injection, schedule: Q01DX001 (ip), vehicle: carboxymethylcellulose (CMC)
  T/C: 86 % of control

## CC(C)(CO)C(O)C(=O)NN (stereo not given)
[4]
  T/C: 91 % of control
[5]
  T/C: 94 % of control

## CCN(CC)CCC(=O)Nc1cccc2c1C(=O)c1c(c(O)c3ccccc3c1O)C2=O
dose: 50.0 mg/kg/injection, schedule: Q01DX009 (ip), vehicle: saline with Tween-80
  T/C: 105 % of control
dose: 100.0 mg/kg/injection, schedule: Q01DX009 (ip), vehicle: saline with Tween-80
  T/C: 91 % of control
dose: 100.0 mg/kg/injection, schedule: Q04DX003 (ip), vehicle: saline with Tween-80
  T/C: 105 % of control
dose: 200.0 mg/kg/injection, schedule: Q04DX003 (ip), vehicle: saline with Tween-80
  T/C: 90 % of control

## C#[C][Sn]([CH2]CCC)([CH2]CCC)[CH2]CCC
dose: 0.39 mg/kg/injection, schedule: Q01DX009 (ip), vehicle: saline with Tween-80
  T/C: 109 % of control
dose: 0.78 mg/kg/injection, schedule: Q01DX009 (ip), vehicle: saline with Tween-80
  T/C: 94 % of control
dose: 1.56 mg/kg/injection, schedule: Q01DX009 (ip), vehicle: saline with Tween-80
  T/C: 95 % of control and 98 % of control
